Measurements from patent US9663478B2, “Benzotriazine oxides as drugs targeting Mycobacterium tuberculosis” (priority 2011, dated 2017).
In brackets after ≈: the same amount, converted by molar mass.

What was measured:
NRP Mtb H37Rv cells = assay: Low-oxygen recovery assay (LORA) MIC; type: cell-based, Mycobacterium tuberculosis; conditions: Mycobacterium tuberculosis, H37RV; NRP Mtb; Tables 1-4 and text; read-out: LORA MIC - ITR
[1] = test system: Mycobacterium abscessus ATCC 19977; assay: Spectrum of antimicrobial activity; type: cell-based
[2] = test system: Enterobacter aerogenes SRI Collection; assay: Spectrum of antimicrobial activity; type: cell-based
[3] = test system: Pseudomonas aeruginosa ATCC 27853; assay: Spectrum of antimicrobial activity; type: cell-based
[4] = test system: Enterococcus faecium ATCC 19434; assay: Spectrum of antimicrobial activity; type: cell-based
[5] = test system: Moraxella catarrhalis ATCC 25238; assay: Spectrum of antimicrobial activity; type: cell-based
[6] = Plasma pharmacokinetics in female mice after oral administration; type: in vivo, mouse; conditions: female Balb/c mice, po 100 mg/kg

SMILES: [O-][n+]1nc(N2CCCC2)[n+]([O-])c2cc3c(cc21)CCC3 [Compound 20q, 3-(pyrrolidin-1-yl)-7,8-dihydro-6H-indeno[5,6-e][1,2,4]triazine 1,4-dioxide]
- MIC (NRP Mtb H37Rv cells): 0.99 µg/mL (≈ 3.64 µM)
- susceptibility of M. abscessus [1]: resistant
- Antimicrobial activity, Mycobacterium abscessus ([1]; ATCC 19977): >32 µg/mL
- Antimicrobial activity, Enterobacter aerogenes [2]: >32 µg/mL
- Antimicrobial activity, Pseudomonas aeruginosa [3]: >32 µg/mL
- Antimicrobial activity, Enterococcus faecium [4]: >32 µg/mL
- Antimicrobial activity, Moraxella catarrhalis [5]: 10 µg/mL
- plasma drug concentration at the 24 hr time point [6]: lower than the limit of quantitation
